Here are results for 8 compounds from US20250352608A1, “POLYPEPTIDES HAVING ANTI-INFLAMMATORY EFFECTS AND USES THEREOF” (OneSkin, Inc., priority 2020, published 2025).

Ends that are not written are not given here.

Data set [1] concerns Primary fibroblasts from Progeria patients. The data set is described as follows: Senescence screen (SA B-galactosidase staining) of polypeptide library. The format is cell-based, human. The following applies: 10 μM, 48 hours. The method, then:
Primary fibroblasts isolated from Progeria patients can constitute a genetic model of early aging and cellular senescence in humans. Primary fibroblasts from Progeria patients were cultured in DMEM (Dulbecco's Modified Eagle's Medium) supplemented with 10% v.v. fetal bovine serum (FBS), and 1% v.v. of penicillin/streptomycin solution (1,000 U·mL-1). Cells were kept in a 5% CO2, 37° C. and 95% humidity atmosphere. After expansion, these cells were seeded in 96-well plates (1,000 cells per well) and, 6 hours after plating, were incubated with individual polypeptides from a proprietary library at 50 μM for 48 hours. Negative control comprised untreated cells, which received vehicle only; positive control group comprised cells incubated with 10 μM ABT-263, a senolytic compound for the same period. […] Three independent experiments including three technical replicates were performed.

A further data set has as its system HGPS HDFs. The data set is described as follows: PP2A modulators and senescence markers. It counts as cell-based, human. The following applies: 48 hs; for cellular senescence (SA-BGal+ cells): Okadaic Acid 5-7.5 nM or DT-061 7.5 μM. The method, then: Since PP2A has not been explored for cellular senescence modulation, whether the treatment of HGPS HDFs with a PP2A inhibitor (Okadaic acid—OA) and activator (DT-061) would result in the modulation of cellular senescence markers was assessed. HGPS HDFs were treated with 5-7.5 nM Okadaic Acid or 7.5 μM DT-061 for 48 hs. Some cells were treated with both 5 nM Okadaic Acid and 12.5 μM Peptide 14 for 48 hours. The senescence level was determined by SA β-galactosidase staining and normalized to total cell number.

For data set [2], the system named is human primary fibroblasts isolated from 3 healthy donors. The data set is described as follows: Etoposide-induced senescence. The format is cell-based. As to conditions: etoposide 20 μM. The method, then: Cellular senescence may be caused by several different stimuli. In order to assess whether Peptide 14 was effective against UVB-induced and chemically-induced senescence, human primary fibroblasts isolated from 3 healthy donors were used. These cells were cultured in DMEM (Dulbecco's Modified Eagle's Medium) supplemented with 10% v.v. fetal bovine serum (FBS), and 1% v.v. of penicillin/streptomycin solution (1,000 U mL-1). Cells were kept in a 5% CO2, 37° C. and 95% humidity atmosphere. After expansion, these cells were seeded in 96-well plates (4,000 cells per well) and, 6 hours after plating, were submitted to either etoposide (20 μM) treatment for 24 hours, or exposed twice to 0.05 J/cm^2 of UVB radiation. […] After incubation, relative cellular senescence (assessed by the activity of senescence associated β-galactosidase staining relative to untreated control) was analyzed and plotted in column graphs. ATRX foci were also assessed following ATRX immunofluorescence staining. Graphs were built using the average ATRX foci detected per nuclei. […] Data was analyzed using with either t-test or ANOVA followed by a Bonferroni post-hoc test. Statistical significance was determined as p-values equal or lower than 0.05 (FIG. 6).

Data set [3] relates to ex vivo skin biopsies (donors). The experiment in a line: Topical application to ex vivo skin biopsies. The format is cell-based, human. As to conditions: vs untreated. The text has this: Senescent cell accumulation in the skin has been related to facial wrinkling and perceived age. A formulation having a concentration of Peptide 14 in the formulation was adjusted (0.01% w/v) to support the skin penetration of the Peptide 14 of up to 2% into the dermis was applied to ex vivo skin biopsies (from donors). A topical retinol application group was used as an “anti-aging” control, due to its widespread and decades-long use in the field, along with a no treatment control group.

Data set [4] relates to peripheral blood mononuclear cells (PBMCs). The data set is described as follows: PBMC mRNA of IFN-γ and IL-10 (RT-qPCR). It counts as cell-based, human. The method, then: The effect of Peptide 14 on T cell activation was assessed by treating PBMCs stimulated with phytohaemagglutinin (PHA) with Peptide 14. PHA usually can trigger lymphocyte activation and cell division. PBMCs that were untreated with PHA or Peptide 14 served as negative control of lymphocyte activation. In the phytohaemagglutinin group, the PBMCs were activated with 5 μg/mL of PHA for 5 days. In the Peptide 14 and PHA group, the PBMCs were activated with 5 μg/mL of PHA and treated with 3.12 μM of Peptide 14 for 5 days. In the Peptide 14 group, the PBMCs were treated with 3.12 μM of Peptide 14 for 5 days. In the rapamycin group, the PBMCs were treated with 100 nM of rapamycin, a well-known immunosuppressive drug for 5 days. In the rapamycin+PHA group, the PBMCs were activated with 5 μg/mL of PHA and treated with 100 nM of rapamycin for 5 days. […] IFN-γ is typically produced in lymphocytes stimulated by PHA and may be used as marker of PBMC stimulation level. IL-10 is an anti-inflammatory cytokine. The cells from each of the experimental groups were processed for total RNA isolation, reverse transcription of the RNA and RT-qPCR. Data is represented as relative expression normalized to ubiquitous gene expression and untreated PBMC negative control.

For data set [5], the system named is Primary fibroblasts from Progeria patients. The data set is described as follows: Senescence in Progeria fibroblasts (LKGIL, WLKGI). It counts as cell-based, human. As to conditions: 500 nM, 5 μM, 50 μM.

For the compound `CC1(C)CCC(c2ccc(Cl)cc2)=C(CN2CCN(c3ccc(C(=O)NS(=O)(=O)c4ccc(N[C@H](CCN5CCOCC5)CSc5ccccc5)c(S(=O)(=O)C(F)(F)F)c4)cc3)CC2)C1` [ABT-263], the “cellular toxicity (cell number)” value in data set [1] is recorded as “cellular toxicity”. Also, in data set [1] (positive control), the “relative cellular senescence (SA B-galactosidase staining)” value is reported as “significant reduction of cellular senescence”.

For the compound `O=S(=O)(N[C@@H]1CCC[C@H](N2c3ccccc3Oc3ccccc32)[C@H]1O)c1ccc(OC(F)(F)F)cc1` [DT-061], the “cellular senescence (SA-BGal+ cells)” value in the data set on HGPS HDFs is recorded as “SA-BGal+ cell reduction”.

Consider `COc1cc([C@@H]2c3cc4c(cc3[C@@H](O[C@@H]3O[C@@H]5CO[C@@H](C)O[C@H]5[C@H](O)[C@H]3O)[C@H]3COC(=O)[C@H]23)OCO4)cc(OC)c1O` [Etoposide, etoposide], for which, in data set [2] (24 hours), the “ATRX foci nuclear accumulation (average ATRX foci/cell)” value is reported as “significant increase”. Besides, the “cellular senescence level (SA β-galactosidase)” value in data set [2] (24 hours (senescence inducer)) is listed as “significant increase”.

For the compound `C=C1[C@@H](O)[C@@H]2O[C@]3(CC[C@H](/C=C/[C@@H](C)[C@@H]4CC(C)=C[C@@]5(O[C@H](C[C@@](C)(O)C(=O)O)CC[C@H]5O)O4)O3)CC[C@H]2O[C@@H]1[C@@H](O)C[C@H](C)[C@H]1O[C@@]2(CCCCO2)CC[C@H]1C` [OA, Okadaic acid], the “cellular senescence (SA-BGal+ cells)” value with HGPS HDFs is “significant increase”. In the data set with HGPS HDFs (Okadaic Acid 5-7.5 nM), the CDKN1A expression result is “significant increase”, the “CXCL1 (SASP marker) expression” value was “significant increase” and the “IL6 (SASP marker) expression” value is “significant increase”.

Turning to `CC1=C(/C=C/C(C)=C/C=C/C(C)=C/CO)C(C)(C)CCC1` [Retinol], in data set [3], the “B2M expression, dermis” value is “significantly decreased”; the “HAS2 expression, dermal samples” value is reported as “increase”; the “IL8 level, epidermis” value is reported as “significantly increased”; the “Ki-67 expression, epidermis” value is reported as “significantly increased”. In data set [3], the “P16 mRNA expression, dermis” value is listed as “significant increase”; the “P16 mRNA expression, epidermis” value was “significant increase”; the “dermal Ki67 expression” value is “significantly induced”; the “dermal collagen 1 expression” value is “significantly induced”. Further, in data set [3], the “keratin 1 expression, epidermis” value is listed as “significantly reduced” and the “keratin 14 expression, epidermis” value is on record as “significantly reduced”.

Regarding `CO[C@H]1C[C@@H]2CC[C@@H](C)[C@@](O)(O2)C(=O)C(=O)N2CCCC[C@H]2C(=O)O[C@H]([C@H](C)C[C@@H]2CC[C@@H](O)[C@H](OC)C2)CC(=O)[C@H](C)/C=C(\C)[C@@H](O)[C@@H](OC)C(=O)[C@H](C)C[C@H](C)/C=C/C=C/C=C/1C` [rapamycin], the “relative expression level of IL-10 (negative control = 1)” value in data set [4] (single agent, 5 days (Peptide 14 3.12 μM; rapamycin 100 nM; PHA 5 μg/mL)) is recorded as “about 2.5”; in data set [4] (with 5 μg/mL PHA, 5 days (Peptide 14 3.12 μM; rapamycin 100 nM)), “about 0.2”.

On to LKGIL [LKGIL], for which the “cellular toxicity (relative cell number)” value in data set [5] is recorded as “No cellular toxicity”.

As to WLKGI [WLKGI], in data set [5], the “cellular toxicity (relative cell number)” value is reported as “No cellular toxicity”.
